In assay [1] the test system is Arabidopsis thaliana. The experiment in a line: MOA1 phenotypic profiling of Arabidopsis sprayed with unknown and commercial herbicides. The class given is in vivo.
The test system of assay [2] is Arabidopsis thaliana plants. The experiment in a line: SOA1 phenotypic analysis of herbicide-treated Arabidopsis plants. The class given is in vivo.
The test system of assay [3] is Arabidopsis thaliana. The experiment in a line: MOA1 biochemical (metabolite) profiling by LC-MS and GC-MS of sprayed Arabidopsis. The following applies: MOA1; 20 minutes and 1 hour after spraying.
Assay [4] relates to Saccharomyces cerevisiae wild type strain BY4743. Put plainly: AF1 combined gene expression and metabolite data mapped to KEGG reactions and pathways. The format is cell-based. The source says:
In AF1, two different technologies were utilized: gene expression analysis (for examination of mRNA expression) and metabolite analysis. […] As noted previously, existing metabolic databases may be helpful in practicing the methods and systems of the present invention, but many databases include limitations that make their use in data analysis and pathway mapping less than straightforward. […] This caveat to KEGG makes it difficult to pinpoint the correct pathway when attempting to link a gene to a specific pathway. […] The pathway score indicates how meaningful the mapping is, or how likely it is to be correctly indicative of the pathway involved in the perturbation under examination. The method provides a pathway score based on perturbation levels of genes and/or compounds and the information content of each gene and/or compound in the pathway, i.e., a pathway score indicates the extent to which other pathways are mapped to a gene/compound. For example, imagine that two genes are perturbed in a particular experiment. One gene maps to only one pathway, giving a high degree of probability that the perturbed pathway is the one identified in the mapping. The second gene maps to three pathways. In the later example, there is only one-third the probability that the pathway identified in the mapping is the one perturbed. The present invention provides a method for calculating the pathway scores, so that more weight is given to a score of a gene or compound that maps to only one pathway than to a score of a gene or compound that maps to multiple pathways. […] Where n=the total number of genes in the pathway; ipath—count=the number of pathways containing a gene; and j=the number of genes in the pathway that are perturbed. Another factor to be considered when weighting a pathway score is the degree of perturbation. Degree of perturbation can be calculated, for example, based on a number of standard deviations from a norm, and included in an equation such as the one shown above, so that not only the number of pathways is taken into account, but also accounts for the amount of gene transcript or compound present as compared to a control. Compounds were also linked to pathways using the KEGG database. […] Of the 676 compounds under consideration, 77 were detected in the AF1 samples. […] The multiple mapping feature of KEGG makes it difficult to pinpoint the correct pathway when trying to link a compound to a specific pathway. […] A pathway score calculation is applied to the compounds to account for both information content (number of pathways a compound maps to) and perturbation level. The data were then combined to determine the number of reactions showing an enzyme and at least one compound perturbed, and to determine the number of pathways having at least one enzyme and one perturbed compound perturbed. The results of the analysis are represented in Tables 16 and 17, and were difficult to interpret, illustrating that the ability to draw conclusions from compound mapping to pathways is limited when absent additional data.

For assay [5] the test system is unchanged. The experiment in a line: AF1 metabolite analysis (GC-MS, LC-MS) of yeast treated with antifungal drugs. The class given is cell-based.

Regarding `Nc1nc[nH]n1` [Amitrole], the “phenotype observed” value in the assay on Arabidopsis thaliana [1] is “exhibited chlorosis and not true bleaching”. For the same molecule, the “characteristic symptoms (phenotypic analysis)” value in assay [2] (herbicide-treated Arabidopsis) was “leaf bleaching and leaf enlargement”. For the same molecule, the “Symptom Class” value in assay [2] (three-week-old Arabidopsis treated with herbicide, phenotypes shown in FIG. 12) is 2.

As for `CCSC(=O)N(CC(C)C)CC(C)C` [Butylate], the “phenotype observed” value in the assay on Arabidopsis thaliana [1] is “neither showed a strong herbicidal phenotype”. Also, the “commonly regulated (putative stress-related) metabolites” value in the assay on Arabidopsis thaliana [3] is “neither butylate nor chlorpropham treatment resulted in many changes in these commonly regulated metabolites”.

Turning to `CC(C)OC(=O)Nc1cccc(Cl)c1` [Chloropropham], the “phenotype observed” value in the assay with Arabidopsis thaliana [1] is “neither showed a strong herbicidal phenotype”. Also, the “commonly regulated (putative stress-related) metabolites” value in the assay with Arabidopsis thaliana [3] is given as “neither butylate nor chlorpropham treatment resulted in many changes in these commonly regulated metabolites”.

For `CC(=O)N1CCN(c2ccc(OCC3COC(Cn4ccnc4)(c4ccc(Cl)cc4Cl)O3)cc2)CC1` (stereo not shown) [Ketoconazole], the “Number of Reactions Having an Enzyme and at Least One Compound Perturbed” value in assay [4] is reported as 21. Besides, the “# Compounds perturbed” value in assay [5] (P < 0.1, yeast, 2×MIC, two hours) stood at 15.

With `CC[C@@H]([C@H](C)O)n1ncn(-c2ccc(N3CCN(c4ccc(OC[C@@H]5CO[C@@](Cn6cncn6)(c6ccc(F)cc6F)C5)cc4)CC3)cc2)c1=O` [Posaconazole], the “Number of Reactions Having an Enzyme and at Least One Compound Perturbed” value in assay [4] stood at 0. In addition, the “Fold Change of ornithine3” value in assay [5] (platform GC, p-Value 0.965157424) is listed as 0.041. Moreover, the “Fold Change of phosphoenolpyruvate” value in assay [5] (platform LC, p-Value 1) is 0. Also, in assay [5] (platform nLC, p-Value 1), the “Fold Change of NacetylDglucosamine” value is listed as 0, the “Fold Change of NacetylLornithine” value is 0, the “Fold Change of orotic acid” value is recorded as 0 and the “Fold Change of phenylpyruvic acid” value stood at 0. Besides, in assay [5] (platform nLC, p-Value 1), the “Fold Change of phosphoenolpyruvate” value is 0, the “Fold Change of pinitol” value amounted to 0, the “Fold Change of retinoic acid” value was 0 and the “Fold Change of salicylic/HObenzoic” value is 0. In addition, in assay [5] (platform nLC, p-Value 1), the “Fold Change of shikimic acid” value is recorded as 0, the “Fold Change of sinapinic acid” value was 0, the “Fold Change of thymine” value was 0 and the “Fold Change of urocanic acid” value stood at 0. In assay [5] (platform nLC, p-Value 1), the “Fold Change of xanthosineDiH2O” value amounted to 0 and the “Fold Change of zeatin” value was 0. Besides, in assay [5] (platform pLC, p-Value 1), the “Fold Change of NacetylLglucosamine” value amounted to 0, the “Fold Change of NacetylLglutamate” value worked out at 0, the “Fold Change of niacinamide” value was determined as 0 and the “Fold Change of nopaline” value was determined as 0. Besides, in assay [5] (platform pLC, p-Value 1), the “Fold Change of progesterone” value is on record as 0, the “Fold Change of riboflavin” value is recorded as 0, the “Fold Change of sugar-phosphate” value worked out at 0 and the “Fold Change of thiamine” value came to 0. Further, in assay [5] (platform pLC, p-Value 1), the “Fold Change of thymine” value was found to be 0, the “Fold Change of tryptophan” value is 0, the “Fold Change of uric acid” value was determined as 0 and the “Fold Change of urocanic acid” value stood at 0. Moreover, in assay [5] (platform pLC, p-Value 1), the “Fold Change of xanthosine(diH2O)” value was determined as 0 and the “Fold Change of zeatin” value is listed as 0.

These data come from patent US20040018500A1, “Methods and systems for analyzing complex biological systems” (priority 2001, published 2004).
